The record followed here is ChEMBL document CHEMBL1155628, “A new cembranolide from the soft coral Sinularia capillosa” (2000).

One experiment deals with L1210. Put plainly: Cytotoxicity against mouse L1210 cells. Format: functional. To be noted: read-out: ED50 (the source's name).
The next experiment concerns P388. Put plainly: Cytotoxicity against mouse P388 cells. To be noted: read-out: ED50 (the source's name). Format: functional.

The structures appear in SMILES notation. In brackets after ≈: the same amount, converted by molar mass.

With `C=C1C(=O)O[C@@H]2C[C@H]1CC[C@]1(C)O[C@H]1CC/C(C)=C/CC[C@@]2(C)O` [FLEXIBILIDE], the EC50 came out at 3 µg/mL (≈ 8.97 µM) in the experiment with L1210 and 1.5 µg/mL (≈ 4.48 µM) in the experiment on P388.
`C=C1C(=O)O[C@]2(C)CC[C@@H]1C[C@@H]1O[C@@]1(C)CC/C=C(\C)CC[C@@H]2O` [SINULARIOLIDE]: the results for the EC50 in the experiment with L1210 and with P388 were 10 µg/mL (≈ 29.9 µM) and 8.5 µg/mL (≈ 25.4 µM), respectively.
Consider `C=C1C(=O)O[C@]2(C)CC[C@@H]1C[C@@H]1O[C@@]1(C)CC[C@H](OC(C)=O)[C@@]1(C)CC[C@@H]2O1`, for which the EC50 was determined as 5 µg/mL (≈ 12.7 µM) with L1210 and 2.5 µg/mL (≈ 6.37 µM) with P388.
`C=C1C(=O)O[C@]2(C)CC[C@@H]1C[C@@H](O)[C@@](C)(O)CC/C=C(\C)CC[C@@H]2O` [CAPILLOLIDE]: the EC50 worked out at 18.5 µg/mL (≈ 52.5 µM) in the experiment on L1210 and 15 µg/mL (≈ 42.6 µM) with P388.
